Earlier results on three compounds are cited in patent publication US20240156798A1, “ANTIOXIDANT COMPOSITIONS AND METHODS OF USE” (Sanare Pharmaceuticals, priority 2022, published 2024).

“Also recorded” adds a separate entry of the source. Like-named read-outs stand apart in the source and are kept apart here.

The test system of data set [1] is U.C. To be noted: U.C. patients, open label.
Data set [2] relates to chemically induced colitis. To be noted: in vivo.
Data set [3] concerns retinal degeneration. The note with it: several models of neurodegeneration and damage, including retinal degeneration.
The subject of data set [4] is ocular alkali burn. To be noted: in vivo.
The subject of data set [5] is high fat diet induced NAFLD. To be noted: for high fat diet induced NAFLD: mice fed a high fat diet.
Data set [6] deals with retinal ganglion cell (RCG) death after optic nerve crush.
The subject of data set [7] is acetic acid-induced experimental colitis. To be noted: NAC 100 mg/kg for seven days.
Data set [8] relates to retinitis pigmentosa.
For data set [9], the system named is normal tension glaucoma (NTG).
For data set [10], the system named is photo-induced retinal degeneration. To be noted: intraperitoneal injection.
The subject of data set [11] is IBD. The note with it: 168 patients, double blind, placebo-controlled.
The subject of data set [12] is dry eye. The note with it: eye drop administration.
The test system of data set [13] is human retinal pigment epithelium (RPE).
The conditions of data set [14]: hundreds of animal models.
In data set [15] the test system is experimentally induced glaucoma. To be noted: C57BL/6J mice.
The test system of data set [16] is gene expression.
Data set [17] has as its system ocular damage. The note with it: topical application, rat.
For data set [18], the system named is ocular damage. The note with it: topical application, rhesus monkey.
For data set [19], the system named is radiation induced alopecia. The note with it: topical, human clinical trials.
The mark [20] stands for this setting: systemic treatment, following optic nerve crush.
[21] abbreviates: RPE from both positive and negative AMD donors.

As to `C[C@H](CCC(=O)NCCS(=O)(=O)O)[C@H]1CC[C@H]2[C@@H]3[C@@H](O)C[C@@H]4C[C@H](O)CC[C@]4(C)[C@H]3CC[C@]12C` [TUDCA, tauroursodeoxycholic acid], the “Phase 1 study testing efficacy and safety” value in data set [1] is given as “Positive results in an open label Phase 1; also recorded: Positive results in Phase 1 study testing”. Besides, the chemically induced colitis in [2] is “Active against chemically induced colitis”. Besides, the “apoptosis following cellular injury” value in [3] is on record as “block”. Further, in data set [4], the “cornea and retina injury” value was “protect”; the ocular inflammation result is recorded as “inhibit”. Besides, the “progression of HFD induced NALFD” value in [5] (TUDCA alone, mice) is on record as “attenuate”. In addition, the “high fat diet induced NAFLD” value in data set [5] is “markedly reduces”. Moreover, in data set [5] (mouse, in vivo), the gut inflammation result is “attenuates; also recorded: ameliorating”, the intestinal barrier function entry is reported as “improves; also recorded: improving”, the intestinal fat transport entry is given as “decreases; also recorded: decreasing” and the intestinal microbiota composition entry is “modulates; also recorded: modulating”. The “retinal ganglion cells in the optic crush model” value in data set [6] (in vivo) was “Protects retinal ganglia cells in the optic; also recorded: Protects retinal ganglion cells in the optic”. Also, in data set [6] (setting [20]), the RCGs survival result is reported as “significantly enhanced” and the apoptosis entry is listed as “suppressed”.
With `CC(=O)N[C@@H](CS)C(=O)O` [NAC, N-acetyl-cysteine], the “macroscopic and histological findings” value in data set [7] is “protective role”. Further, in data set [7] (compared to vehicle controls), the GSH concentration result is on record as “restoration”, the NO concentration result is “restoration” and the “colon tissue MPO activity” value is “significant decrease”. Further, the chemically induced colitis in data set [2] was “Protects against chemically induced”. Further, the “penetration to the posterior segment” value in data set [8] (applied to the cornea) was “able to penetrate to the posterior segment”. The “protecting the retina from oxidative damage” value in data set [8] (applied topically to the eye) is “effective”. For the same compound, in data set [9] (EAAC1 KO mice), the glutathione levels result is “increased”; the “oxidative stress and autophagy” value is listed as “suppressed”. The “effect on retinal degeneration” value in data set [9] (mouse model of NTG) is “protective effect”. In data set [9] (mouse, in vivo), the “decline of retinal function” value was “prevented” and the “retinal ganglion cells (RGC), NTG-like neurodegeneration” value is recorded as “protected”. Besides, the “oxidation and ER stresses” value in data set [10] is recorded as “suppressed”. The “ROS accumulation in the retina” value in [10] (Balb/c mouse) is on record as “inhibiting”. For the same compound, in data set [11], the “Phase 2 study result” value is recorded as “Positive results in a Phase 2”. Also, in [5] (HFD mice), the glucose tolerance result is “improved” and the “morphology of hepatic tissue” value is reported as “totally restored”. Besides, the “hepatic steatosis and metabolic disturbances” value in [5] (mice fed high fat diets (HFD), compared to normally fed mice) was “significantly reduced”. Besides, the “levels of ROS and inflammasome signaling” value in data set [12] was “diminished”. In data set [13] (AMD RPE), the “basal GSH content” value is on record as “increase” and the “basal ROS” value is given as “reduction”. Besides, in data set [13] (H2O2, RPE from both positive and negative AMD donors), the GSH depletion result is recorded as “preventing”. In [13] (setting [21]), the “H2O2 induced cell death” value is “preventing” and the “excessive ROS accumulation” value was “blocking”. In addition, the “basal mitochondrial function (ATP)” value in data set [13] (both groups of cells) is “improved”. The “effect on primary cultures of human RPE” value in data set [13] (patients with AMD) was “positive (protective) effect”.
For the compound “4-hydroxy-2,2,6,6-tetramethylpiperidin-1-oxyl [TEMPOL]”, the safety concerns result in [14] is “No safety concerns”. Also, the “degree of both neutrophil inflammation and lipid peroxidation in the inflamed bowel” value in data set [2] is “Reduction in the degree of both neutrophil”. In addition, the “neuro-inflammation in the ocular hypertensive retina and optic nerve” value in [15] was “decreased”. In addition, in data set [16], the “Glutathione S-Transferase (GST) gene(s) expression” value is recorded as “significantly increased”, the TNFα regulation result is recorded as “downregulates”, the “expression levels of keratinocyte growth factor (KGF) gene” value was “statistically increased” and the “expression of HIF-1α” value is listed as “statistically decreased”. Further, in data set [16], the “expression of HIF-2α” value is reported as “statistically decreased”, the “expression of genes encoding for the 26s proteasome complex” value is listed as “significantly decreased” and the “expression of the ADIPOQ gene” value is “statistically increased”. For the same compound, the UNC5b result in data set [16] (cancer cells) is “significantly increases”. Further, in data set [17], the ocular damage entry is “decrease”. In data set [18], the ocular damage entry is on record as “decrease”. Besides, the “high fat diet induced NAFLD” value in data set [5] is “Can treat and prevent NAFLD in mice”. Also, the radiation induced alopecia entry in [19] was “protect”.
